Measured values taken from US20230064324A1, “NEW USES FOR STEVIOL” (SUNTORY HOLDINGS LIMITED, priority 2019, published 2023).

Test system: PC12 cells (clone HS)
Assay: Neurite elongation-promoting effect on PC12 cells (neurite length per cell, Operetta CLS)
Assay type: cell-based, Rat
Conditions: for Relative neurite length (%): 3 days, negative control=100%
Procedure: PC12 cells (clone HS) were precultured using a growth medium in the same manner as in Example 1. […] The cells thus cultured were subjected to cell membrane staining using Cell Membrane Stain attached to Neurite Outgrowth Staining Kit (Thermo Fisher Scientific Inc.) and nuclear staining using Hoechst 33342 (Cat. No. H3570). Specifically, the medium was replaced with 100 μL of a fixative and staining solution (prepared by adding a 1/1000 amount each of Cell Membrane Stain (1000×) and Hoechst 33342 and a 1/25 amount of a formaldehyde solution (Cat. No. 061-00416, FUJIFILM Wako Pure Chemical Corp.) to DPBS (++) (Cat. No. 14040133, Thermo Fisher Scientific Inc.)), followed by incubation for 20 minutes in a CO2 incubator (5% CO2, 37° C., humid). […] Photographing and quantitative analysis were carried out using Operetta CLS (Perkin Elmer, Inc.), and a neurite length per cell was calculated. Nine fields of view at the center of each well were photographed using a 10× objective lens. A test medium supplemented with 50 ng/mL NGF was used as a positive control, and a vehicle control composed of a differentiation medium supplemented with 0.1% DMSO (final concentration) was used as a negative control.

C=C1C[C@@]23CC[C@H]4[C@@](C)(CCC[C@@]4(C)C(=O)O)[C@@H]2CC[C@]1(O)C3 [Steviol]
neurite elongation (in words) (PC12 cells, varying concentrations of steviol): promoted neurite elongation in a concentration-dependent manner | Relative neurite length (%) (steviol 12.5 μg/mL): 133.3% | Relative neurite length (%) (steviol 25 μg/mL): 180.9% | Relative neurite length (%) (steviol 50 μg/mL): 235.2% | Relative neurite length (%) (steviol 100 μg/mL): 307.7% | Relative neurite length (%) (steviol 200 μg/mL): 308.6%
